Like-named read-outs stand apart in the source and are kept apart here.
Key:
LYN B = LYN B (Homo sapiens, UniProt P07948); assay: Z'-LYTE SelectScreen biochemical kinase assay LYN B
Text: (§1) Thermo Fisher Scientific SelectScreen™ Biochemical Kinase Profiling Service Z′-LYTE™ Screening Protocol and Assay Conditions Assay Theory
(§2) The […] biochemical assay employs a fluorescence-based, coupled-enzyme format and is based on the differential sensitivity of phosphorylated and non-phosphorylated peptides to proteolytic cleavage. The peptide substrate is labeled with two fluorophores—one at each end—that make up a FRET pair. In the primary reaction, the kinase transfers the gamma-phosphate of ATP to a single tyrosine, serine or threonine residue in a synthetic FRET-peptide. In the secondary reaction, a site-specific protease recognizes and cleaves non-phosphorylated FRET-peptides. Phosphorylation of FRET-peptides suppresses cleavage by the Development Reagent. Cleavage disrupts FRET between the donor (i.e., coumarin) and acceptor (i.e., fluorescein) fluorophores on the FRET-peptide, whereas uncleaved, phosphorylated FRET-peptides maintain FRET. A ratiometric method, which calculates the ratio (Emission Ratio=Coumarin emission (445 nm)/Fluorescein emission (520 nm)) of donor emission to acceptor emission after excitation of the donor fluorophore at 400 nm, is used to quantitate reaction progress, as shown in the equation below. A significant benefit of this ratiometric method for quantitating reaction progress is the elimination of well-to-well variations in FRET-peptide concentration and signal intensities. As a result, the assay yields very high Z′-factor values (>0.7) at a low percent phosphorylation. Both cleaved and uncleaved FRET-peptides contribute to the fluorescence signals and therefore to the Emission Ratio. The extent of phosphorylation of the FRET-peptide can be calculated from the Emission Ratio. The Emission Ratio will remain low if the FRET-peptide is phosphorylated (i.e., no kinase inhibition) and will be high if the FRET-peptide is non-phosphorylated (i.e., kinase inhibition).
(§3) The Test Compounds are screened in 1% DMSO (final) in the well. For 10 point titrations, 3-fold serial dilutions are conducted from the starting concentration of the customer's choosing.
(§4) All Peptide/Kinase Mixtures are diluted to a 2× working concentration in the appropriate Kinase Buffer (see section Kinase Specific Assay Conditions for a complete description).
(§5) All ATP Solutions are diluted to a 4× working concentration in Kinase Buffer (50 mM HEPES pH 7.5, 0.01% BRIJ-35, 10 mM MgCl2, 1 mM EGTA). ATP Km apparent is previously determined using a Z″-LYTE assay.
(§6) The Development Reagent is diluted in Development Buffer (see section Kinase-Specific Assay Conditions—Direct and Cascade for a complete description).
(§7) Bar-coded Corning, low volume NBS, black 384-well plate (Corning Cat. #4514) • 1. 100 nL—100× Test Compound in 100% DMSO • 2. 2.4 μL—Kinase buffer • 3. 5 μL—2× Peptide/Kinase Mixture • 4. 2.5 μL—4×ATP Solution • 5. 30—second plate shake • 6. 60—minute Kinase Reaction incubation at room temperature • 7. 5 μL—Development Reagent Solution • 8. 30—second plate shake • 9. 60—minute Development Reaction incubation at room temperature • 10. Read on fluorescence plate reader and analyze the data Z′-LYTE Assay Controls
(§8) SelectScreen Kinase Profiling Service uses XLfit from IDBS. The dose response curve is curve fit to model number 205 (sigmoidal dose-response model).
(§9) The 2×LYN B/Tyr 02 mixture is prepared in 50 mM HEPES pH 7.5, 0.01% BRIJ-35, 10 mM MgCl2, 1 mM EGTA. The final 10 μL Kinase Reaction consists of 0.85-14.8 ng LYN B and 2 μM Tyr 02 in 50 mM HEPES pH 7.5, 0.01% BRIJ-35, 10 mM MgCl2, 1 mM EGTA. After the 1 hour Kinase Reaction incubation, 5 μL of a 1:128 dilution of Development Reagent A is added.

FLT4 (VEGFR3) = FLT4 (VEGFR3) (Homo sapiens, UniProt P35916); assay: Z'-LYTE SelectScreen biochemical kinase assay FLT4 (VEGFR3)
Sequence of FLT4 (VEGFR3) (P35916 25-1363): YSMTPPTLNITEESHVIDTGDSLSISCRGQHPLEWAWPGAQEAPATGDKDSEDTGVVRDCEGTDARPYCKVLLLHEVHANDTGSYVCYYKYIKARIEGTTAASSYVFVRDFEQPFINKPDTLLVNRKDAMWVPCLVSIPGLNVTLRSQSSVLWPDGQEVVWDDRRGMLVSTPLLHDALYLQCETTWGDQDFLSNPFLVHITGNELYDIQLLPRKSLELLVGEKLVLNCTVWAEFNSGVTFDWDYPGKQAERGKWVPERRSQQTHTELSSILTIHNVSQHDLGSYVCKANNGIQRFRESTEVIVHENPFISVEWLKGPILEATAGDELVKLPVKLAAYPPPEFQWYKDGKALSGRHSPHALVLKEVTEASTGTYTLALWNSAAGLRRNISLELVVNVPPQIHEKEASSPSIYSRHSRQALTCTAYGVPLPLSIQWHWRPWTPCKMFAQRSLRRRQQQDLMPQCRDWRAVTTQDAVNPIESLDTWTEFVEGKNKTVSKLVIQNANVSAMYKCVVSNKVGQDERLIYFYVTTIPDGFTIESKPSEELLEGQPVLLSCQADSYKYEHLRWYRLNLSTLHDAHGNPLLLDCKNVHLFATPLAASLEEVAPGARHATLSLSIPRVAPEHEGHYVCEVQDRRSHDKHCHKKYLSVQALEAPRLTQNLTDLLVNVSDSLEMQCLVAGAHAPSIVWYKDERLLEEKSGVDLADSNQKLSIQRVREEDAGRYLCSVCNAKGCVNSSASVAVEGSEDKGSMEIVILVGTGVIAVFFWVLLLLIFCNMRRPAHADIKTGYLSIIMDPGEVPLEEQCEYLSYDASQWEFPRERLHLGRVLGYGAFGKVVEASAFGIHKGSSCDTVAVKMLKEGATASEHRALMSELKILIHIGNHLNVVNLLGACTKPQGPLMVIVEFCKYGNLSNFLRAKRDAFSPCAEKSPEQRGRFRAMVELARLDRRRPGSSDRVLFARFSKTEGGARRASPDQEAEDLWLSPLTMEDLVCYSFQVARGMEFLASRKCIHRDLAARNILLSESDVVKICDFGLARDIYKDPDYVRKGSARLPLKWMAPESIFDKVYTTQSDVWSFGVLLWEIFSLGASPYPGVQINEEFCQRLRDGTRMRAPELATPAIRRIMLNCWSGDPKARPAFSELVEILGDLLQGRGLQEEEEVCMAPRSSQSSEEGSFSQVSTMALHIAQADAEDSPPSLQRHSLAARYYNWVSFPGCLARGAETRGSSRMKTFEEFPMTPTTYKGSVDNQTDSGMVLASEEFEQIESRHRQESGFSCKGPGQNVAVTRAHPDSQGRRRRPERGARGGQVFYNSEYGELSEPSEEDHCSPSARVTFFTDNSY
Text: as §1, §2, §3, §4, §5, §6, §7, §8
The 2×FLT4 (VEGFR3)/Tyr 04 mixture is prepared in 50 mM HEPES pH 7.5, 0.01% BRIJ-35, 10 mM MgCl2, 4 mM MnCl2, 1 mM EGTA, 2 mM DTT. The final 10 μL Kinase Reaction consists of 2-10.5 ng FLT4 (VEGFR3) and 2 μM Tyr 04 in 50 mM HEPES pH 7.5, 0.01% BRIJ-35, 10 mM MgCl2, 2 mM MnCl2, 1 mM EGTA, 1 mM DTT. After the 1 hour Kinase Reaction incubation, 5 μL of a 1:64 dilution of Development Reagent B is added.

CDK5/p35 = CDK5/p35 (Homo sapiens, UniProt Q00535); assay: Z'-LYTE SelectScreen biochemical kinase assay CDK5/p35
Sequence of CDK5/p35 (Q00535 whole entry): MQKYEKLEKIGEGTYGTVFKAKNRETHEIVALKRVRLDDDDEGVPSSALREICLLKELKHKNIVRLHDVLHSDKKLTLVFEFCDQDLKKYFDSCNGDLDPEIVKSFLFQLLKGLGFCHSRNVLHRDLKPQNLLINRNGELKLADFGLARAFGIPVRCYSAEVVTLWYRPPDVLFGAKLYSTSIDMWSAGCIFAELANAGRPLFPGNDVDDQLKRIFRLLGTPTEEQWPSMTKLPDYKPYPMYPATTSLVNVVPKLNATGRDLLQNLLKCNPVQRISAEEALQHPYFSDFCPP
Sequence of CDK5/p35 (Q15078 whole entry partner): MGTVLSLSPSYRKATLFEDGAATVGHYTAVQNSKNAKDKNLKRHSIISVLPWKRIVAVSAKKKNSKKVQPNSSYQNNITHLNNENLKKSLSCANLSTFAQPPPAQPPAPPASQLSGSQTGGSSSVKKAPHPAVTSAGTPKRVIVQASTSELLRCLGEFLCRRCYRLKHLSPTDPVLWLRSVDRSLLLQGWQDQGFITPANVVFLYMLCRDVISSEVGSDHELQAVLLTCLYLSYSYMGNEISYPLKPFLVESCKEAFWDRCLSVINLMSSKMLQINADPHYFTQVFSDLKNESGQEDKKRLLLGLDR
Text: as §1, §2, §3, §4, §5, §6, §7, §8
as §9, with “2×CDK5/p35/Ser/Thr 12” for “2×LYN B/Tyr 02”, “0.14-1.3” for “0.85-14.8”, “CDK5/p35” for “LYN B”, “Ser/Thr 12” for “Tyr 02”, “1:4096” for “1:128”

CSF1R (FMS) = CSF1R (FMS) (Homo sapiens, UniProt P07333); assay: Z'-LYTE SelectScreen biochemical kinase assay CSF1R (FMS)
Sequence of CSF1R (FMS) (P07333 20-972): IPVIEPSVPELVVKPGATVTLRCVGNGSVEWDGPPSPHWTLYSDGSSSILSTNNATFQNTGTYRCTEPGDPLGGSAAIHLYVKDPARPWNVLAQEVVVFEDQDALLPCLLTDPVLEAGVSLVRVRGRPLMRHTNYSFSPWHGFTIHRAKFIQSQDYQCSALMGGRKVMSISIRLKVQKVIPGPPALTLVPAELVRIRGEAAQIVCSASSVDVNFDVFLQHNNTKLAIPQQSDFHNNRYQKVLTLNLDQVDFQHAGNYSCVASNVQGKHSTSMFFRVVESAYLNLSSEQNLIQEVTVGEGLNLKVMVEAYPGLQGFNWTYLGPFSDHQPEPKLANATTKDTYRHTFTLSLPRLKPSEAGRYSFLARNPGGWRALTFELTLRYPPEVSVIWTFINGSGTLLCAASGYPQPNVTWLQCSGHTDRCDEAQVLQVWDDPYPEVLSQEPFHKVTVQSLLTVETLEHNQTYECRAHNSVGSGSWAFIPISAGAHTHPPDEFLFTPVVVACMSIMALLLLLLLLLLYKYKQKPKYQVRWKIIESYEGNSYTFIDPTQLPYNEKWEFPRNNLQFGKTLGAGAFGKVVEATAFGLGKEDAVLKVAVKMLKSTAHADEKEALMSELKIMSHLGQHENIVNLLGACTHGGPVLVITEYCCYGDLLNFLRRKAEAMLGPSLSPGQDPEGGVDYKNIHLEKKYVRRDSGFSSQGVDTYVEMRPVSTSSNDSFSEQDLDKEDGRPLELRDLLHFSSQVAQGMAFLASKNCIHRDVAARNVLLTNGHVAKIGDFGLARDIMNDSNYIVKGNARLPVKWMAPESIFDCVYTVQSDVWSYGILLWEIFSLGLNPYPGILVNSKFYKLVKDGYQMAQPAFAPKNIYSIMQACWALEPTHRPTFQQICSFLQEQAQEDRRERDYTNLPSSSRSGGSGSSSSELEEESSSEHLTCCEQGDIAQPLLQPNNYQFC
Text: as §1, §2, §3, §4, §5, §6, §7, §8
as §9, with “The 2×CSF1R (FMS)/Tyr 01” for “The 2×LYN B/Tyr 02”, “of 0.2-40” for “of 0.85-14.8”, “ng CSF1R (FMS)” for “ng LYN B”, “Tyr 01” for “Tyr 02”, “a 1:256” for “a 1:128”, “Reagent B” for “Reagent A”

[1] = 10 μmolar compound concentration, ATP at Km app, read-out: LYN B inhibition
[2] = read-out: % Inhibition mean LYN B
[3] = 10 μmolar compound concentration, ATP at Km app, read-out: FLT4 (VEGFR3) inhibition
[4] = read-out: % Inhibition mean FLT4 (VEGFR3)
[5] = 10 μmolar compound concentration, ATP at Km app, read-out: CDK5/p35 inhibition
[6] = read-out: % Inhibition mean CDK5/p35
[7] = 10 μmolar compound concentration, ATP at Km app, read-out: CSF1R (FMS) inhibition
[8] = read-out: % Inhibition mean CSF1R (FMS)

Sequence of LYN B (P07948 1-491 isoform P07948-2): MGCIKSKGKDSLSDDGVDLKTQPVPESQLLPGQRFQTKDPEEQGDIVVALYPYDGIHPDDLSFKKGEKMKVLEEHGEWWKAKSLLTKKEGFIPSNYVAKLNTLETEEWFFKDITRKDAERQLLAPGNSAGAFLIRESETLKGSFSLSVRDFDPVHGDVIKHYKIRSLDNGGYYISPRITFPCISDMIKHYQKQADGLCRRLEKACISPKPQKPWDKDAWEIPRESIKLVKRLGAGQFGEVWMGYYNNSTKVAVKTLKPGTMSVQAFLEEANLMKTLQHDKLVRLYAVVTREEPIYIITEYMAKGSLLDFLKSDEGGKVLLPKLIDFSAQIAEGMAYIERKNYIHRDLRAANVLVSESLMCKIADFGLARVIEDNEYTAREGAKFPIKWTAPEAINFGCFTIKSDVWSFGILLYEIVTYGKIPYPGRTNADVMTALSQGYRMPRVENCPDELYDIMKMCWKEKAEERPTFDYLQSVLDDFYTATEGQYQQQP

SMILES	inhibition at 10 µM (LYN B; [1]) [%]	inhibition at 10 µM (LYN B; [2]) [%]	inhibition at 10 µM (FLT4 (VEGFR3); [3]) [%]	inhibition at 10 µM (FLT4 (VEGFR3); [4]) [%]	inhibition at 10 µM (CDK5/p35; [5]) [%]	inhibition at 10 µM (CDK5/p35; [6]) [%]	inhibition at 10 µM (CSF1R (FMS); [7]) [%]	inhibition at 10 µM (CSF1R (FMS); [8]) [%]
CCn1ncc2c1CCC(Nc1nc3c(-c4ccccc4)cccn3n1)C2 (stereo not shown) [Example 57, (1-Ethyl-4,5,6,7-tetrahydro-1H-indazol-5-yl)-(8-phenyl-[1,2,4]triazolo[1,5-a]pyridine-2-yl)-amine]	< 40	20	40 to 80	43	< 40	26	40 to 80	72
Cc1cc(F)ccc1-c1cccn2nc(NC3CCc4cnn(C)c4C3)nc12 (stereo not shown) [Example 40, [8-(4-Fluoro-2-methyl-phenyl)-[1,2,4]triazolo[1,5-a]pyridine-2-yl]-(1-methyl-4,5,6,7-tetrahydro-1H-indazol-6-yl)-amine]	< 40	20	< 40	16	40 to 80	61	< 40	25
CCn1ncc2c1CCC(Nc1nc3c(-c4ccc(C)nc4)cccn3n1)C2 (stereo not shown) [Example 67, (1-Ethyl-4,5,6,7-tetrahydro-1H-indazol-5-yl)-[8-(6-methyl-pyridin-3-yl)-[1,2,4]triazolo[1,5-a]pyridine-2-yl]-amine]	< 40	20	< 40	33	< 40	35	< 40	29
CCn1ncc2c1CCC(Nc1nc3c(-c4ccc(F)cc4)cccn3n1)C2 (stereo not shown) [Example 55, (1-Ethyl-4,5,6,7-tetrahydro-1H-indazol-5-yl)-[8-(4-fluoro-phenyl)-[1,2,4]triazolo[1,5-a]pyridine-2-yl]-amine]	< 40	27	40 to 80	42	< 40	13	< 40	34
CCn1ncc2c1CCC(Nc1nc3c(-c4cccnc4OC)cccn3n1)C2 (stereo not shown) [Example 69, (1-Ethyl-4,5,6,7-tetrahydro-1H-indazol-5-yl)-[8-(2-methoxy-pyridin-3-yl)-[1,2,4]triazolo[1,5-a]pyridine-2-yl]-amine]	< 40	15	< 40	16	< 40	28	< 40	8
CCc1nn(C)c2c1CCC(Nc1nc3c(-c4ccc(F)cc4C)cccn3n1)C2 (stereo not shown) [Example 54, (3-Ethyl-1-methyl-4,5,6,7-tetrahydro-1H-indazol-6-yl)-[8-(4-fluoro-2-methyl-phenyl)-[1,2,4]triazolo[1,5-a]pyridine-2-yl]-amine]	< 40	15	< 40	38	< 40	18	< 40	27
Cc1cc(F)ccc1-c1cccn2nc(NC3CCc4c(cnn4C(C)C)C3)nc12 (stereo not shown) [Example 44, [8-(4-fluoro-2-methyl-phenyl)-[1,2,4]triazolo[1,5-a]pyridine-2-yl]-(1-isopropyl-4,5,6,7-tetrahydro-1H-indazol-5-yl)-amine]	< 40	21	40 to 80	43	< 40	25	40 to 80	43

Now from value to compound:

inhibition at 10 µM (LYN B; [1]) [%]	inhibition at 10 µM (LYN B; [2]) [%]	inhibition at 10 µM (FLT4 (VEGFR3); [3]) [%]	inhibition at 10 µM (FLT4 (VEGFR3); [4]) [%]	inhibition at 10 µM (CDK5/p35; [5]) [%]	inhibition at 10 µM (CDK5/p35; [6]) [%]	inhibition at 10 µM (CSF1R (FMS); [7]) [%]	inhibition at 10 µM (CSF1R (FMS); [8]) [%]	SMILES
< 40	8	< 40	24	< 40	10	< 40	18	CCn1ncc2c1CC[C@H](Nc1nc3c(-c4ccc(F)c(Cl)c4)cccn3n1)C2 [Example S-61, (S)-[8-(3-Chloro-4-fluoro-phenyl)-[1,2,4]triazolo[1,5-a]pyridine-2-yl]-(1-ethyl-4,5,6,7-tetrahydro-1H-indazol-5-yl)-amine]
< 40	31	40 to 80	50	40 to 80	56	40 to 80	79	CCn1ncc2c1CCC(Nc1nc3c(-c4cncc(Cl)c4)cccn3n1)C2 (stereo not shown) [Example 73, [8-(5-Chloro-pyridin-3-yl)-[1,2,4]triazolo[1,5-a]pyridine-2-yl]-(1-ethyl-4,5,6,7-tetrahydro-1H-indazol-5-yl)-amine]
< 40	26	< 40	36	< 40	39	< 40	31	CCn1ncc2c1CC[C@@H](Nc1nc3c(-c4ccc(F)cc4C)cccn3n1)C2 [Example R-42, (R)-(1-Ethyl-4,5,6,7-tetrahydro-1H-indazol-5-yl)-[8-(4-fluoro-2-methyl-phenyl)-[1,2,4]triazolo[1,5-a]pyridine-2-yl]-amine]
< 40	22	< 40	28	40 to 80	58	> 80	83	CCn1ncc2c1CCC(Nc1nc3c(-c4cncc(OC)c4)cccn3n1)C2 (stereo not shown) [Example 70, (1-Ethyl-4,5,6,7-tetrahydro-1H-indazol-5-yl)-[8-(5-methoxy-pyridin-3-yl)-[1,2,4]triazolo[1,5-a]pyridine-2-yl]-amine]

From patent US11339161B2, “Triazolo pyridines as modulators of gamma-secretase” (Boehringer Ingelheim International GmbH, priority 2017, dated 2022)
